For eight compounds, Activity, Intrinsic activity and pKb results are on record in ChEMBL document CHEMBL1128004, “Ketones related to the benzoate 5-HT4 receptor antagonist RS-23597 are high affinity partial agonists” (Bioorg Med Chem Lett, 1994).

Assay [1] concerns the target 5-hydroxytryptamine receptor 4 (Homo sapiens) (UniProt Q13639). Briefly: Compound was tested for 5-HT4 receptor in rat esophageal muscularis mucosae; Antagonist. It counts as functional. Conditions: filed as antagonist, target entry is the homologue from another species.
Assay [2] shares this target. Description: Intrinsic activity relative to the 5-HT was determined. It counts as functional. The note with it: Rattus norvegicus.
The target is the same in assay [3]. Description: Compound was tested for antagonist activity against 5-HT4 receptor in rat esophageal muscularis mucosae. The class given is functional, tissue-based. Conditions: Muscularis mucosa, target entry is the homologue from another species.

The structures appear in SMILES notation.

5-hydroxytryptamine receptor 4 (Homo sapiens), sequence (Q13639 whole entry): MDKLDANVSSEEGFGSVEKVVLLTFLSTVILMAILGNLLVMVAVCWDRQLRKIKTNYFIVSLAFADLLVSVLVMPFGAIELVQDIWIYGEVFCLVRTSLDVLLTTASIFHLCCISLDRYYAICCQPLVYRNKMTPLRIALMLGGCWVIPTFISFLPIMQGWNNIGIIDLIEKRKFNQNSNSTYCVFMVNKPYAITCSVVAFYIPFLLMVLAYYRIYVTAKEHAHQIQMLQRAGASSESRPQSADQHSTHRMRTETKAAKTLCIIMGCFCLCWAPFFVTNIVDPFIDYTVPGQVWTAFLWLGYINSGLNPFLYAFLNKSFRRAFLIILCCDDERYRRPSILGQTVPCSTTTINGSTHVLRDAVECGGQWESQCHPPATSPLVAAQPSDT

Regarding `COc1cc(N)c(Cl)cc1C(=O)CCC1CCN(CCCNS(C)(=O)=O)CC1`, the Activity result in assay [1] is “Antagonist”.
Take `COc1cc(N)c(Cl)cc1C(=O)NCCN1CCCCC1`: the Intrinsic activity in assay [2] was determined as 0.6.
As to `COc1cc(N)c(Cl)cc1C(=O)OCCCN1CCCCC1`, the negative logarithm of the Kb (pKb) in assay [3] was determined as 7.9.
`COc1cc(N)c(Cl)cc1C(=O)OCCN1CCCCC1` showed an Intrinsic activity in assay [2] of 0.5.
For `CCN(CC)CCOC(=O)c1cc(Cl)c(N)cc1OC`, the negative-log Kb (pKb) in assay [3] amounted to 7.3.
As to `COc1cc(N)c(Cl)cc1C(=O)NC[C@@H]1CCN2CCC[C@@H]12`, the Intrinsic activity in assay [2] was determined as 0.6.
Compound `CCN(CC)CCNC(=O)c1cc(Cl)c(N)cc1OC` yielded an Intrinsic activity in assay [2] of 0.5.
The same measure, in the same setting: as for `COc1cc(N)c(Cl)cc1C(=O)CCC1CCN(CCNS(C)(=O)=O)CC1`, the figure is 0.5.
